{"source": "PubChem BioAssay (NCI)", "assay_in_all_cases": "NCI-60 cell line screen, 48 h", "key": {"RPMI-8226 leukemia": {"system": "RPMI-8226 leukemia"}, "HT29 colon": {"system": "HT29 colon"}, "A498 renal": {"system": "A498 renal"}, "SK-MEL-28 melanoma": {"system": "SK-MEL-28 melanoma"}, "NCI-H23 lung": {"system": "NCI-H23 lung"}, "UACC-62 melanoma": {"system": "UACC-62 melanoma"}, "NCI-H460 lung": {"system": "NCI-H460 lung"}, "KM12 colon": {"system": "KM12 colon"}, "HS 578T breast": {"system": "HS 578T breast"}, "K-562 leukemia": {"system": "K-562 leukemia"}, "MCF7 breast": {"system": "MCF7 breast"}, "MDA-MB-231 breast": {"system": "MDA-MB-231 breast"}, "PC-3 prostate": {"system": "PC-3 prostate"}, "SK-MEL-5 melanoma": {"system": "SK-MEL-5 melanoma"}, "UO-31 renal": {"system": "UO-31 renal"}, "OVCAR-5 ovarian": {"system": "OVCAR-5 ovarian"}, "OVCAR-3 ovarian": {"system": "OVCAR-3 ovarian"}, "OVCAR-4 ovarian": {"system": "OVCAR-4 ovarian"}, "DU-145 prostate": {"system": "DU-145 prostate"}, "SF-268 CNS": {"system": "SF-268 CNS"}, "OVCAR-8 ovarian": {"system": "OVCAR-8 ovarian"}, "HL-60(TB) leukemia": {"system": "HL-60(TB) leukemia"}, "SF-295 CNS": {"system": "SF-295 CNS"}, "IGROV1 ovarian": {"system": "IGROV1 ovarian"}, "CAKI-1 renal": {"system": "CAKI-1 renal"}, "BT-549 breast": {"system": "BT-549 breast"}, "SNB-19 CNS": {"system": "SNB-19 CNS"}, "NCI-H522 lung": {"system": "NCI-H522 lung"}, "MALME-3M melanoma": {"system": "MALME-3M melanoma"}, "SF-539 CNS": {"system": "SF-539 CNS"}, "M14 melanoma": {"system": "M14 melanoma"}, "T-47D breast": {"system": "T-47D breast"}, "SK-OV-3 ovarian": {"system": "SK-OV-3 ovarian"}, "EKVX NSCLC": {"system": "EKVX NSCLC"}, "RXF 393 renal": {"system": "RXF 393 renal"}, "ACHN renal": {"system": "ACHN renal"}, "MOLT-4 leukemia": {"system": "MOLT-4 leukemia"}, "A549 NSCLC": {"system": "A549 NSCLC"}, "TK-10 renal": {"system": "TK-10 renal"}, "NCI-H226 lung": {"system": "NCI-H226 lung"}, "NCI/ADR-RES ovarian": {"system": "NCI/ADR-RES ovarian"}, "LOX IMVI melanoma": {"system": "LOX IMVI melanoma"}, "MDA-MB-435": {"system": "MDA-MB-435"}, "CCRF-CEM leukemia": {"system": "CCRF-CEM leukemia"}, "SW-620 colon": {"system": "SW-620 colon"}, "HCC-2998 colon": {"system": "HCC-2998 colon"}, "SR leukemia": {"system": "SR leukemia"}, "U251 CNS": {"system": "U251 CNS"}, "HOP-62 NSCLC": {"system": "HOP-62 NSCLC"}, "HCT-15 colon": {"system": "HCT-15 colon"}, "UACC-257 melanoma": {"system": "UACC-257 melanoma"}, "HCT-116 colon": {"system": "HCT-116 colon"}, "SK-MEL-2 melanoma": {"system": "SK-MEL-2 melanoma"}, "SN12C renal": {"system": "SN12C renal"}, "SNB-75 CNS": {"system": "SNB-75 CNS"}, "786-0 renal": {"system": "786-0 renal"}, "COLO 205 colon": {"system": "COLO 205 colon"}, "HOP-92 NSCLC": {"system": "HOP-92 NSCLC"}}, "note": "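Five concentrations, 48 hours, 96-well plates. TGI is the concentration that stops growth completely.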", "data": [{"smiles": "COc1nc(OC)nc(-c2cccc(F)c2)n1", "values": [{"measurement": "TGI", "setting": "RPMI-8226 leukemia", "result": 45.3, "unit": "µM"}, {"measurement": "TGI", "setting": "HT29 colon", "result": 57.9, "unit": "µM"}, {"measurement": "TGI", "setting": "A498 renal", "result": 34.1, "unit": "µM"}, {"measurement": "TGI", "setting": "SK-MEL-28 melanoma", "result": 39.6, "unit": "µM"}, {"measurement": "TGI", "setting": "NCI-H23 lung", "result": 29.7, "unit": "µM"}, {"measurement": "TGI", "setting": "UACC-62 melanoma", "result": 22, "unit": "µM"}, {"measurement": "TGI", "setting": "NCI-H460 lung", "result": 32.9, "unit": "µM"}, {"measurement": "TGI", "setting": "KM12 colon", "result": 31.7, "unit": "µM"}, {"measurement": "TGI", "setting": "HS 578T breast", "result": 93.5, "unit": "µM"}, {"measurement": "TGI", "setting": "K-562 leukemia", "result": 53.7, "unit": "µM"}, {"measurement": "TGI", "setting": "MCF7 breast", "result": 45.1, "unit": "µM"}, {"measurement": "TGI", "setting": "MDA-MB-231 breast", "result": 30, "unit": "µM"}, {"measurement": "TGI", "setting": "PC-3 prostate", "result": 40.2, "unit": "µM"}, {"measurement": "TGI", "setting": "SK-MEL-5 melanoma", "result": 29.8, "unit": "µM"}, {"measurement": "TGI", "setting": "UO-31 renal", "result": 31.8, "unit": "µM"}, {"measurement": "TGI", "setting": "OVCAR-5 ovarian", "result": 28.5, "unit": "µM"}, {"measurement": "TGI", "setting": "OVCAR-3 ovarian", "result": 27.7, "unit": "µM"}, {"measurement": "TGI", "setting": "OVCAR-4 ovarian", "result": 39.6, "unit": "µM"}, {"measurement": "TGI", "setting": "DU-145 prostate", "result": 26.8, "unit": "µM"}, {"measurement": "TGI", "setting": "SF-268 CNS", "result": 32, "unit": "µM"}, {"measurement": "TGI", "setting": "OVCAR-8 ovarian", "result": 69.2, "unit": "µM"}, {"measurement": "TGI", "setting": "HL-60(TB) leukemia", "result": "> 100", "unit": "µM"}, {"measurement": "TGI", "setting": "SF-295 CNS", "result": 30, "unit": "µM"}, {"measurement": "TGI", "setting": "IGROV1 ovarian", "result": 31.8, "unit": "µM"}, {"measurement": "TGI", "setting": "CAKI-1 renal", "result": 11.4, "unit": "µM"}, {"measurement": "TGI", "setting": "BT-549 breast", "result": 29.7, "unit": "µM"}, {"measurement": "TGI", "setting": "SNB-19 CNS", "result": 32.4, "unit": "µM"}, {"measurement": "TGI", "setting": "NCI-H522 lung", "result": 42.4, "unit": "µM"}, {"measurement": "TGI", "setting": "MALME-3M melanoma", "result": 31.2, "unit": "µM"}, {"measurement": "TGI", "setting": "SF-539 CNS", "result": 32.5, "unit": "µM"}, {"measurement": "TGI", "setting": "M14 melanoma", "result": 36.4, "unit": "µM"}, {"measurement": "TGI", "setting": "T-47D breast", "result": 33.8, "unit": "µM"}, {"measurement": "TGI", "setting": "SK-OV-3 ovarian", "result": 31.4, "unit": "µM"}, {"measurement": "TGI", "setting": "EKVX NSCLC", "result": 18.6, "unit": "µM"}, {"measurement": "TGI", "setting": "RXF 393 renal", "result": 35, "unit": "µM"}, {"measurement": "TGI", "setting": "ACHN renal", "result": 30.7, "unit": "µM"}, {"measurement": "TGI", "setting": "MOLT-4 leukemia", "result": "> 100", "unit": "µM"}, {"measurement": "TGI", "setting": "A549 NSCLC", "result": 52.6, "unit": "µM"}, {"measurement": "TGI", "setting": "TK-10 renal", "result": 33.1, "unit": "µM"}, {"measurement": "TGI", "setting": "NCI-H226 lung", "result": 31.1, "unit": "µM"}, {"measurement": "TGI", "setting": "NCI/ADR-RES ovarian", "result": 31.7, "unit": "µM"}, {"measurement": "TGI", "setting": "LOX IMVI melanoma", "result": 43.7, "unit": "µM"}, {"measurement": "TGI", "setting": "MDA-MB-435", "result": 31, "unit": "µM"}, {"measurement": "TGI", "setting": "CCRF-CEM leukemia", "result": "> 100", "unit": "µM"}, {"measurement": "TGI", "setting": "SW-620 colon", "result": 40.6, "unit": "µM"}, {"measurement": "TGI", "setting": "HCC-2998 colon", "result": 28.2, "unit": "µM"}, {"measurement": "TGI", "setting": "SR leukemia", "result": 17.5, "unit": "µM"}, {"measurement": "TGI", "setting": "U251 CNS", "result": 31, "unit": "µM"}, {"measurement": "TGI", "setting": "HOP-62 NSCLC", "result": 45.7, "unit": "µM"}, {"measurement": "TGI", "setting": "HCT-15 colon", "result": 29.3, "unit": "µM"}, {"measurement": "TGI", "setting": "UACC-257 melanoma", "result": 30.7, "unit": "µM"}, {"measurement": "TGI", "setting": "HCT-116 colon", "result": 40.5, "unit": "µM"}, {"measurement": "TGI", "setting": "SK-MEL-2 melanoma", "result": 38.6, "unit": "µM"}, {"measurement": "TGI", "setting": "SN12C renal", "result": 31.5, "unit": "µM"}, {"measurement": "TGI", "setting": "SNB-75 CNS", "result": 44.4, "unit": "µM"}, {"measurement": "TGI", "setting": "786-0 renal", "result": 63, "unit": "µM"}, {"measurement": "TGI", "setting": "COLO 205 colon", "result": 37.8, "unit": "µM"}, {"measurement": "TGI", "setting": "HOP-92 NSCLC", "result": 38.8, "unit": "µM"}]}]}
